Holding throughout (experiment): Kinobeads competition binding, HL60 cell lysate
Common to all, as to details: 10 μM free compound

In one assay the target is Erk2 (Homo sapiens, UniProt P28482). The arrangement: endogenous in cells. On the procedure: (§1) To one aliquot of cell lysate 10 μM of the free compound (FIG. 3, CZC31326) was added and allowed to bind to proteins in the lysate. Then the affinity matrix with the immobilized compound (Example 1) was added to capture proteins that were not interacting with the previously added free compound. Beads were separated from the lysate and bead bound proteins were eluted in SDS sample buffer and subsequently separated by SDS-Polyacrylamide gel electrophoresis (FIG. 4). Suitable gel bands were cut out and subjected to in-gel proteolytic digestion with trypsin. The second lysate aliquot was processed identically, however no free compound was added (DMSO solvent control). Peptides originating from samples 1 and 2 were labeled with iTRAQ reagents (iTRAQ 114 and iTRAQ 117) and the combined samples were analyzed with a nano-flow liquid chromatography system coupled online to a tandem mass spectrometer (LC-MS/MS) experiment followed by iTRAQ reporter ion quantification in the MS/MS spectra (Ross et al., 2004. Mol. Cell. Proteomics 3(12):1154-1169). Further experimental protocols can be found in WO2006/134056 and a previous publication (Bantscheff et al., 2007. Nature Biotechnology 25, 1035-1044). Sepharose-beads with the immobilized compound (100 μl beads per pull-down experiment) were equilibrated in lysis buffer and incubated with a cell lysate sample containing 50 mg of protein on an end-over-end shaker (Roto Shake Genie, Scientific Industries Inc.) for 2 hours at 4° C. Beads were collected, transferred to Mobicol-columns (MoBiTech 10055) and washed with 10 ml lysis buffer containing 0.4% NP40 detergent, followed by 5 ml lysis buffer containing 0.2% detergent. To elute bound proteins, 60 μl 2×SDS sample buffer was added to the column. The column was incubated for 30 minutes at 50° C. and the eluate was transferred to a siliconized microfuge tube by centrifugation. Proteins were then alkylated with 108 mM iodoacetamid. Proteins were then separated by SDS-Polyacrylamide electrophoresis (SDS-PAGE). The peptide extracts of samples treated with 10 μM of free compound (CZC31326) and the solvent control (0.5% DMSO) were treated with different variants of the isobaric tagging reagent (iTRAQ Reagents Multiplex Kit, part number 4352135, Applied Biosystems, Foster City, Calif., USA). The iTRAQ reagents are a set of multiplexed, amine-specific, stable isotope reagents that can label peptides on amino groups in up to four different biological samples enabling simultaneous identification and quantitation of peptides. The iTRAQ reagents were used according to instructions provided by the manufacturer. The samples were resuspended in 10 μl 50 mM TEAB solution, pH 8.5 and 10 μl ethanol were added. The iTRAQ reagent was dissolved in 120 μl ethanol and 10 μl of reagent solution were added to the sample. The labeling reaction was performed at room temperature for one hour on a horizontal shaker and stopped by adding 5 μl of 100 mM TEAB and 100 mM glycine in water. The two labeled sampled were then combined, dried in a vacuum centrifuge and resuspended in 10 μl of 0.1% formic acid in water. Relative protein quantitation was performed using peak areas of iTRAQ reporter ion signals essentially as described in an earlier publication (Bantscheff et al., 2007. Nature Biotechnology 25, 1035-1044).

Another assay addresses T1, GCK (Homo sapiens, UniProt Q12851).
T1 sequence (Q12851 1-820): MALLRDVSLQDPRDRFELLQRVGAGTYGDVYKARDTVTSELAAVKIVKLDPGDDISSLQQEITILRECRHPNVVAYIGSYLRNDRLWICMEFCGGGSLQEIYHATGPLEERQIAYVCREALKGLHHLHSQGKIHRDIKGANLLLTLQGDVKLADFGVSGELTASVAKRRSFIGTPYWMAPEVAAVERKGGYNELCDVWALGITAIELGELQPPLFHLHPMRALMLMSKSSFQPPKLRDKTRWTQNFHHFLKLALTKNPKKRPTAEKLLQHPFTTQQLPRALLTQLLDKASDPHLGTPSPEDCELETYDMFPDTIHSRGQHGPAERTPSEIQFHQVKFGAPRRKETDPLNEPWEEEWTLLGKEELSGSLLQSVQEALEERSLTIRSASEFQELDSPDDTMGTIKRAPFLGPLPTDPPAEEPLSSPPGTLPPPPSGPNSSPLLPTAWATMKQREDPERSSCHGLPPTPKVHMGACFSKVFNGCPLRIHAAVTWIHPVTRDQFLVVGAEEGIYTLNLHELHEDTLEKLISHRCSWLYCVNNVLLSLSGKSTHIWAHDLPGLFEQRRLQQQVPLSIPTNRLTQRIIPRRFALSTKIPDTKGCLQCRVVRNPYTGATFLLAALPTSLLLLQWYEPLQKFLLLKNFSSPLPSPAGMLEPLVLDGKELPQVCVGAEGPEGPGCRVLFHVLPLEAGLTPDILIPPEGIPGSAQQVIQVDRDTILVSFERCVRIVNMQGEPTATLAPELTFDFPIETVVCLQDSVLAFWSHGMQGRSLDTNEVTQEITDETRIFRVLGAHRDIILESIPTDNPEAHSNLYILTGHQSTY
The arrangement: endogenous in cells. On the procedure:
as §1

In a further assay the target is IRE1 (Homo sapiens, UniProt O75460). Also noted: endogenous in cells. On the procedure:
as §1

A further assay has as its target JAK2 (Homo sapiens, UniProt O60674). Also noted: endogenous in cells. On the procedure:
as §1

In a further assay the target is PAK4 (Homo sapiens, UniProt O96013). The arrangement: endogenous in cells. On the procedure: as §1
The target of a further assay is PLK4 (Homo sapiens, UniProt O00444). Also noted: endogenous in cells. On the procedure: as §1
Another assay concerns the target PYK2 (Homo sapiens, UniProt Q14289). Also noted: endogenous in cells. On the procedure:
as §1

In another assay the target is DNAPK (Homo sapiens, UniProt P78527). Also noted: endogenous in cells; host or cells: HL60 (DSMZ ACC3). On the procedure:
(§2) To one aliquot of cell lysate 10 μM of the free compound (FIG. 3, CZC31326) was added and allowed to bind to proteins in the lysate. Then the affinity matrix with the immobilized compound (Example 1) was added to capture proteins that were not interacting with the previously added free compound. Beads were separated from the lysate and bead bound proteins were eluted in SDS sample buffer and subsequently separated by SDS-Polyacrylamide gel electrophoresis (FIG. 4). Suitable gel bands were cut out and subjected to in-gel proteolytic digestion with trypsin. The second lysate aliquot was processed identically, however no free compound was added (DMSO solvent control). Peptides originating from samples 1 and 2 were labeled with iTRAQ reagents (iTRAQ 114 and iTRAQ 117) and the combined samples were analyzed with a nano-flow liquid chromatography system coupled online to a tandem mass spectrometer (LC-MS/MS) experiment followed by iTRAQ reporter ion quantification in the MS/MS spectra (Ross et al., 2004. Mol. Cell. Proteomics 3(12):1154-1169). Further experimental protocols can be found in WO2006/134056 and a previous publication (Bantscheff et al., 2007. Nature Biotechnology 25, 1035-1044). Sepharose-beads with the immobilized compound (100 μl beads per pull-down experiment) were equilibrated in lysis buffer and incubated with a cell lysate sample containing 50 mg of protein on an end-over-end shaker (Roto Shake Genie, Scientific Industries Inc.) for 2 hours at 4° C. […] The iTRAQ reagents are a set of multiplexed, amine-specific, stable isotope reagents that can label peptides on amino groups in up to four different biological samples enabling simultaneous identification and quantitation of peptides. […] Relative protein quantitation was performed using peak areas of iTRAQ reporter ion signals essentially as described in an earlier publication (Bantscheff et al., 2007. Nature Biotechnology 25, 1035-1044).

Another assay deals with Erk1 (Homo sapiens, UniProt P27361). The arrangement: endogenous in cells; host or cells: HL60 (DSMZ ACC3). On the procedure:
as §2

A further assay concerns the target FER (Homo sapiens, UniProt P16591). The arrangement: endogenous in cells; host or cells: HL60 (DSMZ ACC3). On the procedure:
as §2

Sequence of Erk1 (P27361 whole entry): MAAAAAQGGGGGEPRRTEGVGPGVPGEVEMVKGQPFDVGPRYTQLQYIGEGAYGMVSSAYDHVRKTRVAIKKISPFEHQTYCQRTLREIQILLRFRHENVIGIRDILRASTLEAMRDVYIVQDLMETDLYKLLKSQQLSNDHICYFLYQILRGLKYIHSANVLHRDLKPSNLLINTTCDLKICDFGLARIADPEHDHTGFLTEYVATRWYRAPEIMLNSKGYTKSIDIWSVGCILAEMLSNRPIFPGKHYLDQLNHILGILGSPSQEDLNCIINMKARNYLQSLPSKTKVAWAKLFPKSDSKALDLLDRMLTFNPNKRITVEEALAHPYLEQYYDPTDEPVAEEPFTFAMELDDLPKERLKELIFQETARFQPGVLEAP
Sequence of Erk2 (P28482 whole entry): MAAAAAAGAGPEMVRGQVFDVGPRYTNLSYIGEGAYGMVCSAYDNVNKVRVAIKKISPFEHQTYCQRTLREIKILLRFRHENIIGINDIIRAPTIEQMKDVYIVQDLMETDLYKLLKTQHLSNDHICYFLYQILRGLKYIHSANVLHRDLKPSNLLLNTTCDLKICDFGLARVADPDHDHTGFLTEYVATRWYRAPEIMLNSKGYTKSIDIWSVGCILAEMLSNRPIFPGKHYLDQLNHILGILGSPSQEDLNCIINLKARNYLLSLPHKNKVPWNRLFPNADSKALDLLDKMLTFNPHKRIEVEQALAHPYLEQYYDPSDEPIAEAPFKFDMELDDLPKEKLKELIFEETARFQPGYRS
Sequence of JAK2 (O60674 whole entry): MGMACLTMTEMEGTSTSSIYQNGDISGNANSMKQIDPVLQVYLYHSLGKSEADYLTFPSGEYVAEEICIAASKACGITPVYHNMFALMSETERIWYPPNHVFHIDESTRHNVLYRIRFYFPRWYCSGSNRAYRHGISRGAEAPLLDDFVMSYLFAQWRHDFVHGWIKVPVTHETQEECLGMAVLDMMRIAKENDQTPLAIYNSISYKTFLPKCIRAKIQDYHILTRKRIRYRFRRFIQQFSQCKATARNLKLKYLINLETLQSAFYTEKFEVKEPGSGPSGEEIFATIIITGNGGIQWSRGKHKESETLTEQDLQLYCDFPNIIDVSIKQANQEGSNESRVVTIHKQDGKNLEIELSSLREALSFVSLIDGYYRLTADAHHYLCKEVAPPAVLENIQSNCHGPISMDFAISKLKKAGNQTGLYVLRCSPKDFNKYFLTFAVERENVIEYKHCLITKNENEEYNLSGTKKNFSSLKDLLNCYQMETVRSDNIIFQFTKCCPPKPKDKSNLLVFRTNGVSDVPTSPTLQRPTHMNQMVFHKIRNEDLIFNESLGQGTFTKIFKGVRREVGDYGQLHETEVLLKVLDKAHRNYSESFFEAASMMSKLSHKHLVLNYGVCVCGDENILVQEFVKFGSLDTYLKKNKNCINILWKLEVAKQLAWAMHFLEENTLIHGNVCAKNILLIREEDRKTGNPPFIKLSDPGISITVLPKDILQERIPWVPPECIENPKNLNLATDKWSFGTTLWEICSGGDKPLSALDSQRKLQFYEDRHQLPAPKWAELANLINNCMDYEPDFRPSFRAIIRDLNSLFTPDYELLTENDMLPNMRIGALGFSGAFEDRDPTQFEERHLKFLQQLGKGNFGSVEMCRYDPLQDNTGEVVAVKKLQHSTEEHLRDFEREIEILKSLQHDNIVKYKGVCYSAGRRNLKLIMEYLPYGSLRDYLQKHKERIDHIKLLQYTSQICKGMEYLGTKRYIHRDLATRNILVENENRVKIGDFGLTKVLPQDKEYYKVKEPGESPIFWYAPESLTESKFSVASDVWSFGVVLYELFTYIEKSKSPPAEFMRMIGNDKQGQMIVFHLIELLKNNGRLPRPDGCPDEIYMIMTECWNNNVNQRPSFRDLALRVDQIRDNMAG
Sequence of PAK4 (O96013 whole entry): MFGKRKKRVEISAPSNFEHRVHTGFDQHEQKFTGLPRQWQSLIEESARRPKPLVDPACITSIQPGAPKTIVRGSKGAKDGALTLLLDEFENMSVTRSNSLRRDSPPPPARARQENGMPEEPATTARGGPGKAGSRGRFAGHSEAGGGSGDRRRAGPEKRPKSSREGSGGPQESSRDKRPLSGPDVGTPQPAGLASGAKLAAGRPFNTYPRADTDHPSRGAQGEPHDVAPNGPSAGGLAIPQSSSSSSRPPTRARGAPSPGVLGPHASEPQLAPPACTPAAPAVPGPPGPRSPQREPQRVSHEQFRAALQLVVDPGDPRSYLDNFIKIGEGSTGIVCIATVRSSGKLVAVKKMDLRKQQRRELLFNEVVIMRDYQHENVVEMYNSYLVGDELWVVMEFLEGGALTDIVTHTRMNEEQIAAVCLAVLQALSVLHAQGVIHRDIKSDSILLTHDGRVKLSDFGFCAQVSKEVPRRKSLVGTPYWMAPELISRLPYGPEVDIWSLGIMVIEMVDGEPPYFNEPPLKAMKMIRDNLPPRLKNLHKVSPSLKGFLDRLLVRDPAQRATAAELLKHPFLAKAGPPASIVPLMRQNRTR
Sequence of IRE1 (O75460 19-977): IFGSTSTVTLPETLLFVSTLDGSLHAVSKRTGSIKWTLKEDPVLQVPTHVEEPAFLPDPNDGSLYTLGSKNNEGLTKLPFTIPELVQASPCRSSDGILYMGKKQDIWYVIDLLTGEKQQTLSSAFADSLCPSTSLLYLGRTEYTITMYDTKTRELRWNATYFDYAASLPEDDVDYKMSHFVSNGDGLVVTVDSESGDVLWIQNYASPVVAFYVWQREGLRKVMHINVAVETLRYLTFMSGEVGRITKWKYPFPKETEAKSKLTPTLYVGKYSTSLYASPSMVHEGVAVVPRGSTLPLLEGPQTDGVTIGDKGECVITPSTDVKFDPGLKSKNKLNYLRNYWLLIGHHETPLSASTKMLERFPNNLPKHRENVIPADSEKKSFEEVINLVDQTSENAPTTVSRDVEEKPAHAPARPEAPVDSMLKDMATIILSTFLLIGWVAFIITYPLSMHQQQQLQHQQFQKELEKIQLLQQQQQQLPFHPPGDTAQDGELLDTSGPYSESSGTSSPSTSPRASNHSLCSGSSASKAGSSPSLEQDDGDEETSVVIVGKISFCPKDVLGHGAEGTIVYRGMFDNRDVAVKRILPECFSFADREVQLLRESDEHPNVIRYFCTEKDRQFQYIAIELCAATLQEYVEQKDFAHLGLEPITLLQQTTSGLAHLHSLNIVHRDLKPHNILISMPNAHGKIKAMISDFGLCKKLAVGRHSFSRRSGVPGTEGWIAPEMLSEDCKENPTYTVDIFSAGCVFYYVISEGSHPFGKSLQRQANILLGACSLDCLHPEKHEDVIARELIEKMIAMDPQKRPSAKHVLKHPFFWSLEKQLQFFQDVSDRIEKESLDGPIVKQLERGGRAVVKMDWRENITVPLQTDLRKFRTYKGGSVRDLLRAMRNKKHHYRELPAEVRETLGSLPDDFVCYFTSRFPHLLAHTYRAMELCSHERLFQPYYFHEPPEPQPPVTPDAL
Sequence of PLK4 (O00444 whole entry): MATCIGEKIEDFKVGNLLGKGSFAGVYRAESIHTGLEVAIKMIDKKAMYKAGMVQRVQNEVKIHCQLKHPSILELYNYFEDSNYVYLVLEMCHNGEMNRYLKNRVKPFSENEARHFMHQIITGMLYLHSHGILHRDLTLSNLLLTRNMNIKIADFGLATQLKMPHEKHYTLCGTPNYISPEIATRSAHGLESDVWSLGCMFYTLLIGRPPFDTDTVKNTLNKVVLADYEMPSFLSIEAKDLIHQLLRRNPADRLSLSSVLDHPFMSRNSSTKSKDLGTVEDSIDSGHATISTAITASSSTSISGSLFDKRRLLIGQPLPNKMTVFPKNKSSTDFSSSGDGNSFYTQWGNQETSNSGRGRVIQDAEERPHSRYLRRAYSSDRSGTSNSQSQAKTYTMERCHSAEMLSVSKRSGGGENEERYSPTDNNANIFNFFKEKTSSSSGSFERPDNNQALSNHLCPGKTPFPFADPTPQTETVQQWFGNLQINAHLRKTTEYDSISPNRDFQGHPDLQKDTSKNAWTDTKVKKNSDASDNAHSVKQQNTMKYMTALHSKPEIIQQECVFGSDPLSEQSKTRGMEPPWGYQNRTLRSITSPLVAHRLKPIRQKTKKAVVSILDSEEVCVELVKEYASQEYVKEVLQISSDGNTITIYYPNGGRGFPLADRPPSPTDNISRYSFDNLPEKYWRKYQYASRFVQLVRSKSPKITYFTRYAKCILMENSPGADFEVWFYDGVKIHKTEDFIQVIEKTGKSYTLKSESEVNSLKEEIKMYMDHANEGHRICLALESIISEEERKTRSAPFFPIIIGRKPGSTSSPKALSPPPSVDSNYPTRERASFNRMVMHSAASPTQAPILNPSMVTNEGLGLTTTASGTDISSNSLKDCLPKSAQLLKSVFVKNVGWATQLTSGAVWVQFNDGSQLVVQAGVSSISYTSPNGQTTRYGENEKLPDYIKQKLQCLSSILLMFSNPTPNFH

As a reminder, the inhibition is the change of the read-out against control, counted positive when it falls. On to `CS(=O)(=O)Nc1ccccc1Nc1nc(Nc2cccc(OCCN)c2)ncc1Cl` [CZC31326, N-(2-(2-(3-(2-aminoethoxy)phenylamino)-5-chloropyrimidin-4-ylamino)phenyl)methanesulfonamide], for which the inhibition at 10 µM on Erk2 stood at 75.8%; on GCK it was 96.5%; on IRE1, 95.1%; at PAK4 it was 97.5%; on PLK4, 91.7%; at PYK2, 95.7%. For the same molecule, the inhibition at 10 µM on DNAPK turned out to be 75.5%; at Erk1, 84.8%; on FER, 97.7%. In addition, at JAK2, the Competition % is 96.8%.

The values above are taken from patent US20120270237A9, “METHODS FOR THE IDENTIFICATION OF KINASE INTERACTING MOLECULES AND FOR THE PURIFICATION OF KINASE PROTEINS” (Cellzone AG, priority 2009, published 2012).
